Measurements published in ChEMBL document CHEMBL5241112, “Insights into the recent progress in the medicinal chemistry of pyranopyrimidine analogs” (RSC Med Chem, 2022).
≈ marks a conversion by molar mass, not a printed value.

Tests used:
[1] = tested on: Bacillus cereus; assay: Antimicrobial activity against Bacillus cereus ATCC14579 assessed as diameter of inhibition zone at 20 mg/ml incubated for 24 hrs by disk diffusion method; assay type: functional; details: read-out: DIZ
[2] = tested on: Salmonella typhimurium; assay: Antibacterial activity against Salmonella typhimurium assessed as diameter of inhibition zone; assay type: functional, Salmonella enterica subsp. enterica serovar Typhimurium
[3] = tested on: Pseudomonas aeruginosa; assay: Antimicrobial activity against Pseudomonas aeruginosa ATCC 27853 assessed as diameter of inhibition zone at 20 mg/ml incubated for 24 hrs by disk diffusion method; assay type: functional; details: read-out: DIZ
[4] = tested on: Escherichia coli; assay: Antimicrobial activity against Escherichia coli ATCC 14169 assessed as diameter of inhibition zone at 20 mg/ml incubated for 24 hrs by disk diffusion method; assay type: functional; details: read-out: DIZ
[5] = tested on: Mycobacterium tuberculosis; assay: Antitubercular activity against Mycobacterium tuberculosis H37Rv assessed as bacterial growth inhibition incubated for 24 hrs by MABA assay; assay type: functional
[6] = tested on: Escherichia coli; assay: Antibacterial activity against Escherichia coli assessed as diameter of inhibition zone; assay type: functional
[7] = tested on: Klebsiella pneumoniae; assay: Antimicrobial activity against Klebsiella pneumoniae UC57 assessed as diameter of inhibition zone at 20 mg/ml incubated for 24 hrs by disk diffusion method; assay type: functional; details: read-out: DIZ
[8] = tested on: Bacillus subtilis; assay: Antibacterial activity against Bacillus subtilis assessed as diameter of inhibition zone; assay type: functional
[9] = tested on: Staphylococcus aureus; assay: Antibacterial activity against Staphylococcus aureus assessed as diameter of inhibition zone; assay type: functional
[10] = tested on: Staphylococcus aureus; assay: Antimicrobial activity against Staphylococcus aureus NCTC7447 assessed as diameter of inhibition zone at 20 mg/ml incubated for 24 hrs by disk diffusion method; assay type: functional; details: read-out: DIZ
[11] = tested on: MCF7; assay: Anticancer activity against human MCF7 cells assessed as reduction in cell viability; assay type: functional, cell-based
[12] = tested on: HCT-116; assay: cells; details: Homo sapiens
[13] = tested on: HepG2; assay: Anticancer activity against human HepG2 cells assessed as reduction in cell viability; assay type: functional, cell-based
[14] = Antioxidant activity assessed as hydroxyl radical scavenging activity incubated for 5 mins by spectrophotometric analysis; assay type: functional; set-up: concentration or dose not given beside the values
[15] = Antioxidant activity assessed as DPPH radical scavenging activity incubated for 20 mins by spectrophotometric analysis; assay type: functional; set-up: concentration or dose not given beside the values
[16] = species on record: Homo sapiens; assay: Anticoagulant activity in human plasma assessed as activated partial thromboplastin time at 1000 ug/ml incubated for 4 mins; assay type: functional; details: dose 1000 µg/ml
[17] = tested on: MCF7; assay: cells; details: Homo sapiens, MCF7, 48 h
[18] = Inhibition of porcine pancreatic alpha-amylase preincubated for 10 mins followed by substrate starch addition and measured after 10 mins by colorimetric analysis; set-up: species or system Sus scrofa
[19] = biological target: Albumin (Bos taurus, UniProt P02769); assay: […] bovine serum albumin denaturation incubated for 23 mins by UV-Visible spectrophotometry
Albumin, sequence (P02769 whole entry): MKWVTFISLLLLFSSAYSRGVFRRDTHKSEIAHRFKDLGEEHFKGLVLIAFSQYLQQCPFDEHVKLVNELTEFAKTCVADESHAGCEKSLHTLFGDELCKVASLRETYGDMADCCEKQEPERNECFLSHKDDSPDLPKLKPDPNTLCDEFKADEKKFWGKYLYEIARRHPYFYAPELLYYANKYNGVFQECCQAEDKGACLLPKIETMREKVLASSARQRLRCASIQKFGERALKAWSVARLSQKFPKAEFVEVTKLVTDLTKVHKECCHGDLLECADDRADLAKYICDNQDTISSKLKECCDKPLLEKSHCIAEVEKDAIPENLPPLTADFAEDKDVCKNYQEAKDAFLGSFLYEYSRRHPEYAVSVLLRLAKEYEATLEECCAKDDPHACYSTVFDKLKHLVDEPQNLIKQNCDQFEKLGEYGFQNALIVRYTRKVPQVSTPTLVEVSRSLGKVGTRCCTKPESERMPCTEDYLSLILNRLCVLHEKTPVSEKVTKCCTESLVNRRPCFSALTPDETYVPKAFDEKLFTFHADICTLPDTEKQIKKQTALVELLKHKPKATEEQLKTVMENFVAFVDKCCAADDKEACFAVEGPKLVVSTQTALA

[20] = biological target: Alpha-glucosidase (Saccharomyces cerevisiae S288c, UniProt P53341+P38158+P07265); assay: Inhibition of Saccharomyces cerevisiae alpha-glucosidase preincubated for 5 mins followed by PNP-GLUC substrate addition and measured after 20 mins by spectroscopic analysis; assay type: protein assay
[21] = tested on: HCT-116; assay: Anticancer activity against human HCT-116 cells assessed as reduction in cell viability incubated for 96 hrs by MTT assay; assay type: functional, cell-based; details: HCT-116, 96 h

CN[C@@H]1[C@H](O[C@H]2[C@H](O[C@H]3[C@H](O)[C@@H](O)[C@H](N=C(N)N)[C@@H](O)[C@@H]3N=C(N)N)O[C@@H](C)[C@]2(O)C=O)O[C@@H](CO)[C@H](O)[C@H]1O [STREPTOMYCIN]
zone of inhibition at 20000 µg/mL [1]: 16 mm | diameter of the inhibition zone (DIZ) [2]: 18 mm | zone of inhibition at 20000 µg/mL [3]: 16 mm | zone of inhibition at 20000 µg/mL [4]: 18 mm | MIC [5]: 6.25 µg/mL (≈ 10.7 µM) | diameter of the inhibition zone (DIZ) [6]: 20 mm | zone of inhibition at 20000 µg/mL [7]: 18 mm | diameter of the inhibition zone (DIZ) [8]: 18 mm | diameter of the inhibition zone (DIZ) [9]: 16 mm | zone of inhibition at 20000 µg/mL [10]: 18 mm

COc1ccc(C2C(C#N)=C(NC(C)=O)Oc3[nH]c(=O)[nH]c(=O)c32)cc1 (stereo not drawn)
IC50 [11]: 2.43 µM | IC50 [12]: 2.61 µM | IC50 [13]: 2.09 µM

O=c1[nH]c2c(c(=O)[nH]1)Oc1c(c(=O)oc3ccccc13)C2c1c(Cl)cccc1Cl (stereo not drawn)
Activity [14]: 65.4% | Activity [15]: 71.2%

Cc1nc2c3c(ncn2n1)OC1=C(C(=O)CC(C)(C)C1)C3c1ccccc1 (stereo not drawn)
Time [16]: 60.1 s

CC1(C)CC(=O)C2=C(C1)Oc1ncn3ncnc3c1C2c1ccccc1 (stereo not drawn)
Time [16]: 59.4 s

COc1ccccc1C1C(C#N)=C(N)Oc2[nH]c(=O)[nH]c(=O)c21 (stereo not drawn)
zone of inhibition at 20000 µg/mL [1]: 11 mm | zone of inhibition at 20000 µg/mL [3]: 7 mm | zone of inhibition at 20000 µg/mL [4]: 9 mm | zone of inhibition at 20000 µg/mL [7]: 13 mm | zone of inhibition at 20000 µg/mL [10]: 15 mm

O=c1[nH]c2c(c(=O)[nH]1)Oc1c(c(=O)oc3ccccc13)C2c1ccccc1O (stereo not drawn)
Activity [14]: 54.3% | Activity [15]: 59.1%

O=c1nc2c3c([nH]1)Oc1c(O)cccc1C3c1c(c3ccccc3oc1=O)O2 (stereo not drawn)
MIC [5]: 50 µg/mL (≈ 134 µM)

O=c1[nH]cc(F)c(=O)[nH]1 [FLUOROURACIL]
IC50 [17]: 5.4 µM

O=c1[nH]c2c(c(=O)[nH]1)Oc1c(c(=O)oc3ccccc13)C2c1ccc(F)cc1 (stereo not drawn)
Activity [14]: 62.1% | Activity [15]: 70.1%

N#CC1=C(N)Oc2[nH]c(=O)[nH]c(=O)c2C1c1ccc(O)cc1 (stereo not drawn)
zone of inhibition at 20000 µg/mL [1]: 14 mm | diameter of the inhibition zone (DIZ) [2]: 10 mm | zone of inhibition at 20000 µg/mL [3]: 15 mm | zone of inhibition at 20000 µg/mL [4]: 15 mm | diameter of the inhibition zone (DIZ) [6]: 10 mm | zone of inhibition at 20000 µg/mL [7]: 10 mm | diameter of the inhibition zone (DIZ) [9]: 10 mm | zone of inhibition at 20000 µg/mL [10]: 15 mm

COc1ccc(C2c3c([nH]c(=O)[nH]c3=O)Oc3ncn(-c4ccc(C)cc4)c(=N)c32)cc1 (stereo not drawn)
IC50 [11]: 2.43 µM | IC50 [12]: 2.61 µM | IC50 [13]: 2.09 µM

COc1ccc(C2c3[nH]c(=O)[nH]c(=O)c3Oc3c2c(=O)oc2ccccc32)c(O)c1 (stereo not drawn)
Activity [14]: 54.3% | Activity [15]: 59.1%

N#CC1=C(N)Oc2[nH]c(=O)[nH]c(=O)c2C1c1ccc([N+](=O)[O-])cc1 (stereo not drawn)
zone of inhibition at 20000 µg/mL [1]: 11 mm | diameter of the inhibition zone (DIZ) [2]: 14 mm | zone of inhibition at 20000 µg/mL [3]: 3 mm | zone of inhibition at 20000 µg/mL [4]: 12 mm | diameter of the inhibition zone (DIZ) [6]: 16 mm | zone of inhibition at 20000 µg/mL [7]: 4 mm | diameter of the inhibition zone (DIZ) [8]: 18 mm | diameter of the inhibition zone (DIZ) [9]: 16 mm | zone of inhibition at 20000 µg/mL [10]: 4 mm

COc1ccc2c(c1)C1c3c(nc(=O)[nH]c3O2)Oc2c1c(=O)oc1ccccc21 (stereo not drawn)
MIC [5]: 50 µg/mL (≈ 129 µM)

C[C@H]1O[C@H](O[C@H]2[C@H](O)[C@@H](O)[C@@H](O[C@H]3[C@H](O)[C@@H](O)C(O)O[C@@H]3CO)O[C@@H]2CO)[C@H](O)[C@@H](O)[C@@H]1N[C@H]1C=C(CO)[C@@H](O)[C@H](O)[C@H]1O (stereo partly drawn) [ACARBOSE]
IC50 [18]: 0.214 µM

CC1(C)CC(=O)C2=C(C1)Oc1ncn3nc(CC#N)nc3c1C2c1ccccc1 (stereo not drawn)
Time [16]: 63.4 s

COc1ccc(C2C(C#N)=C(NC(=O)/C=C/C(=O)O)Oc3[nH]c(=O)[nH]c(=O)c32)cc1 (stereo not drawn)
IC50 [11]: 2.43 µM | IC50 [12]: 2.61 µM | IC50 [13]: 2.09 µM

Cc1ccc(C2C(C(=O)N3CCCCC3)=C(c3ccccc3O)Oc3[nH]c(=S)[nH]c(=O)c32)cc1 (stereo not drawn)
IC50 [19]: 19.5 µM | IC50 [20]: 4000 µM | IC50 [18]: 14.1 µM

COc1ccc(-n2cnc3c(c2=N)C(c2ccccc2)C2=C(CC(C)(C)CC2=O)O3)cc1 (stereo not drawn)
Time [16]: 57 s

CCO/C=N/C1=C(C#N)C(c2ccc(OC)cc2)c2c([nH]c(=O)[nH]c2=O)O1 (stereo not drawn)
IC50 [11]: 2.43 µM | IC50 [12]: 2.61 µM | IC50 [13]: 2.09 µM

O=c1nc2c3c([nH]1)Oc1ccc(O)cc1C3c1c(c3ccccc3oc1=O)O2 (stereo not drawn)
MIC [5]: 50 µg/mL (≈ 134 µM)

CN[C@@H]1C[C@H]2O[C@@](C)([C@@H]1OC)n1c3ccccc3c3c4c(c5c6ccccc6n2c5c31)C(=O)NC4 [STAUROSPORINE]
IC50 [21]: 6.94 µM

COc1ccc(C2c3c([nH]c(=O)[nH]c3=O)Oc3ncn(-c4ccccc4N)c(=N)c32)cc1 (stereo not drawn)
IC50 [11]: 2.43 µM | IC50 [12]: 2.61 µM | IC50 [13]: 2.09 µM
